Experimental data from US20080293771A1, “AZACYCLYLBENZAMIDE DERIVATIVES AS HISTAMINE-3 ANTAGONISTS” (Wyeth, priority 2007, published 2008).
Structures can show the parent of a compound that is named as a salt.

melting point	SMILES
184 to 185 °C	Cc1nc2ccccc2n1-c1ccc(C(=O)N(C)[C@@H]2CCN(CC3CCCCC3)C2)cc1 (as salt: hydrochloride)
181 to 183 °C	Cc1nc2ccccc2n1-c1ccc(C(=O)N(C)[C@@H]2CCN(C(C)C)C2)cc1 (as salt: hydrochloride)
175 to 176 °C	Cc1nc2ccccc2n1-c1ccc(C(=O)N(C)[C@@H]2CCN(C3CCC3)C2)cc1 (as salt: hydrochloride)
186 to 187 °C	Cc1nc2ccccc2n1-c1ccc(C(=O)N(C)[C@@H]2CCN(C3CCCC3)C2)cc1 (as salt: hydrochloride)
200 to 202 °C	Cc1nc2ccccc2n1-c1ccc(C(=O)N(C)[C@@H]2CCN(C3CCOCC3)C2)cc1 (as salt: hydrochloride)
205 to 207 °C	Cc1nc2ccccc2n1-c1ccc(C(=O)N(C)[C@@H]2CCN(C3CC4CCC3C4)C2)cc1 (some centres unmarked) (as salt: hydrochloride)
257 to 259 °C	Cc1nc2ccccc2n1-c1ccc(C(=O)N(C)[C@@H]2CCN(C3C4CC5CC(C4)CC3C5)C2)cc1 (some centres unmarked) (as salt: hydrochloride)
190 to 192 °C	Cc1nc2ccccc2n1-c1ccc(C(=O)N(C)[C@H]2CCN(C(C)C)C2)cc1 (as salt: hydrochloride)
184 to 185 °C	Cc1nc2ccccc2n1-c1ccc(C(=O)N(C)[C@H]2CCN(C3CCC3)C2)cc1 (as salt: hydrochloride)
165 to 166 °C	Cc1nc2ccccc2n1-c1ccc(C(=O)N(C)[C@H]2CCN(C3CCCC3)C2)cc1 (as salt: hydrochloride)
170 to 172 °C	Cc1nc2ccccc2n1-c1ccc(C(=O)N(C)[C@H]2CCN(C3CCCCC3)C2)cc1 (as salt: hydrochloride)
173 to 175 °C	Cc1nc2ccccc2n1-c1ccc(C(=O)N(C)[C@H]2CCN(C3CCC(C)C3)C2)cc1 (some centres unmarked) (as salt: hydrochloride)
175 to 177 °C	Cc1nc2ccccc2n1-c1ccc(C(=O)N(C)[C@H]2CCN(C3CC[C@@H](C)C3)C2)cc1 (some centres unmarked) (as salt: hydrochloride)
195 to 196 °C	Cc1nc2ccccc2n1-c1ccc(C(=O)N(C)[C@H]2CCN(C3CCCCC3C)C2)cc1 (some centres unmarked) (as salt: hydrochloride)
187 to 189 °C	Cc1nc2ccccc2n1-c1ccc(C(=O)N(C)[C@H]2CCN(C3CCC[C@@H](C)C3)C2)cc1 (some centres unmarked) (as salt: hydrochloride)
181 to 183 °C	Cc1nc2ccccc2n1-c1ccc(C(=O)N(C)[C@H]2CCN(C3CCCC(C)C3)C2)cc1 (some centres unmarked) (as salt: hydrochloride)
179 to 180 °C	Cc1nc2ccccc2n1-c1ccc(C(=O)N(C)[C@H]2CCN(CC3CC3)C2)cc1 (as salt: hydrochloride)
189 to 190 °C	Cc1nc2ccccc2n1-c1ccc(C(=O)N(C)[C@@H]2CCN(CC(C)C)C2)cc1 (as salt: hydrochloride)
193 to 194 °C	Cc1nc2ccccc2n1-c1ccc(C(=O)N(C)[C@@H]2CCN(C3CCCCC3)C2)cc1 (as salt: hydrochloride)
185 to 186 °C	Cc1nc2ccccc2n1-c1ccc(C(=O)N(C)[C@@H]2CCN(CC3CC3)C2)cc1 (as salt: hydrochloride)
190 to 192 °C	Cc1nc2ccccc2n1-c1ccc(C(=O)N(C)[C@@H]2CCN(CC3CCCC3)C2)cc1 (as salt: hydrochloride)
219 to 221 °C	Cc1nc2ccccc2n1-c1ccc(C(=O)N(C)C2CCNCC2)cc1 (as salt: hydrochloride) [Example 30, N-Methyl-4-(2-methylbenzimidazol-1-yl)-N-piperidin-4-yl-benzamide Hydrochloride]

melting point	SMILES
282 to 284 °C	Cc1nc2ccccc2n1-c1ccc(C(=O)N(C)C2CCN(C(C)C)CC2)cc1 (as salt: hydrochloride) [Example 31, N-(1-isopropylpiperidin-4-yl)-N-methyl-4-(2-methyl-1H-benzimidazol-1-yl)benzamide]
270 °C (dec.)	Cc1nc2ccccc2n1-c1ccc(C(=O)N(C)C2CCN(C3CCCC3)CC2)cc1 (as salt: hydrochloride) [Example 32, N-(1-cyclopentylpiperidin-4-yl)-N-methyl-4-(2-methyl-1H-benzimidazol-1-yl)benzamide]
285 °C (dec.)	Cc1nc2ccccc2n1-c1ccc(C(=O)N(C)C2CCN(C3CCCCC3)CC2)cc1 (as salt: hydrochloride) [Example 33, N-(1-cyclohexylpiperidin-4-yl)-N-methyl-4-(2-methyl-1H-benzimidazol-1-yl)benzamide]
280 °C (dec.)	Cc1nc2ccccc2n1-c1ccc(C(=O)N(C)C2CCN(C3CCC3)CC2)cc1 (as salt: hydrochloride) [Example 34, N-(1-cyclobutylpiperidin-4-yl)-N-methyl-4-(2-methyl-1H-benzimidazol-1-yl)benzamide]
126 to 128 °C	Cc1nc2ccccc2n1Cc1ccc(C(=O)N(C)[C@@H]2CCNC2)cc1 (as salt: hydrochloride) [Example 35, N-Methyl-4-[(2-methylbenzimidazol-1-yl)methyl]-N—(R)-pyrrolidin-3-yl-benzamide Hydrochloride]
150 to 152 °C	CN(C(=O)c1ccc(Cn2cnc3ccccc32)cc1)[C@@H]1CCNC1 (as salt: hydrochloride) [Example 36, (R)-4-((1H-benzo[d]imidazol-1-yl)methyl)-N-methyl-N-(pyrrolidin-3-yl)benzamide Hydrochloride]
188 to 190 °C	Cc1nc2ccccc2n1Cc1ccc(C(=O)N(C)[C@@H]2CCN(C3CCCCC3)C2)cc1 (as salt: hydrochloride) [Example 40, N-[(3R)-1-cyclohexylpyrrolidin-3-yl]-N-methyl-4-[(2-methyl-1H-benzimidazol-1-yl)methyl]benzamide]
200 to 202 °C	Cc1nc2ccccc2n1Cc1ccc(C(=O)N(C)C2CCN(C(C)C)CC2)cc1 (as salt: hydrochloride) [Example 46, N-(1-isopropylpiperidin-4-yl)-N-methyl-4-[(2-methyl-1H-benzimidazol-1-yl)methyl]benzamide]
280 °C (dec.)	Cc1nc2ccccc2n1Cc1ccc(C(=O)N(C)C2CCN(C3CCC3)CC2)cc1 (as salt: hydrochloride) [Example 47, N-(1-cyclobutylpiperidin-4-yl)-N-methyl-4-[(2-methyl-1H-benzimidazol-1-yl)methyl]benzamide]
280 °C (dec.)	Cc1nc2ccccc2n1Cc1ccc(C(=O)N(C)C2CCN(C3CCCC3)CC2)cc1 (as salt: hydrochloride) [Example 48, N-(1-cyclopentylpiperidin-4-yl)-N-methyl-4-[(2-methyl-1H-benzimidazol-1-yl)methyl]benzamide]
185 to 187 °C	CC(C)N1CCC(N(C)C(=O)c2ccc(Cn3cnc4ccccc43)cc2)CC1 (as salt: hydrochloride) [Example 49, 4-(1H-benzimidazol-1-ylmethyl)-N-(1-isopropylpiperidin-4-yl)-N-methylbenzamide]
238 to 240 °C	CN(C(=O)c1ccc(Cn2cnc3ccccc32)cc1)C1CCN(C2CCC2)CC1 (as salt: hydrochloride) [Example 50, 4-(1H-benzimidazol-1-ylmethyl)-N-(1-cyclobutylpiperidin-4-yl)-N-methylbenzamide]
248 to 250 °C	CN(C(=O)c1ccc(Cn2cnc3ccccc32)cc1)C1CCN(C2CCCC2)CC1 (as salt: hydrochloride) [Example 51, 4-(1H-benzimidazol-1-ylmethyl)-N-(1-cyclopentylpiperidin-4-yl)-N-methylbenzamide]
230 to 232 °C	Cc1nc2cc(C#N)ccc2n1-c1ccc(C(=O)N(C)[C@@H]2CCN(C(C)C)C2)cc1 (as salt: hydrochloride) [Example 54, 4-(5-cyano-2-methyl-1H-benzimidazol-1-yl)-N-[(3R)-1-isopropylpyrrolidin-3-yl]-N-methylbenzamide]
240 to 242 °C	Cc1nc2cc(C#N)ccc2n1-c1ccc(C(=O)N(C)[C@@H]2CCN(C3CCC3)C2)cc1 (as salt: hydrochloride) [Example 55, 4-(5-cyano-2-methyl-1H-benzimidazol-1-yl)-N-[(3R)-1-cyclobutylpyrrolidin-3-yl]-N-methylbenzamide]
185 to 187 °C	Cc1nc2cc(C#N)ccc2n1-c1ccc(C(=O)N(C)[C@@H]2CCN(C3CCCC3)C2)cc1 (as salt: hydrochloride) [Example 56, 4-(5-cyano-2-methyl-1H-benzimidazol-1-yl)-N-[(3R)-1-cyclopentylpyrrolidin-3-yl]-N-methylbenzamide]
227 to 228 °C	CC(C)N1CC[C@@H](N(C)C(=O)c2ccc(-n3cc4ccccc4n3)cc2)C1 (as salt: hydrochloride) [Example 61, 4-(2H-indazol-2-yl)-N-[(3R)-1-isopropylpyrrolidin-3-yl]-N-methylbenzamide]
163 to 165 °C	CN(C(=O)c1ccc(-n2cc3ccccc3n2)cc1)[C@@H]1CCN(C2CCC2)C1 (as salt: hydrochloride) [Example 62, N-[(3R)-1-cyclobutylpyrrolidin-3-yl]-4-(2H-indazol-2-yl)-N-methylbenzamide]
216 to 218 °C	CN(C(=O)c1ccc(-n2cc3ccccc3n2)cc1)[C@@H]1CCN(C2CCCC2)C1 (as salt: hydrochloride) [Example 63, N-[(3R)-1-cyclopentylpyrrolidin-3-yl]-4-(2H-indazol-2-yl)-N-methylbenzamide]
175 to 177 °C	CC(C)N1CC[C@@H](N(C)C(=O)c2ccc(-n3ncc4ccccc43)cc2)C1 (as salt: hydrochloride) [Example 64, 4-(1H-indazol-1-yl)-N-[(3R)-1-isopropylpyrrolidin-3-yl]-N-methylbenzamide]
163 to 165 °C	CN(C(=O)c1ccc(-n2ncc3ccccc32)cc1)[C@@H]1CCN(C2CCC2)C1 (as salt: hydrochloride) [Example 65, N-[(3R)-1-cyclobutylpyrrolidin-3-yl]-4-(1H-indazol-1-yl)-N-methylbenzamide]
151 to 152 °C	CN(C(=O)c1ccc(-n2ncc3ccccc32)cc1)[C@@H]1CCN(C2CCCC2)C1 (as salt: hydrochloride) [Example 66, N-[(3R)-1-cyclopentylpyrrolidin-3-yl]-4-(1H-indazol-1-yl)-N-methylbenzamide]
